“Also recorded” adds a separate entry of the source.

For test [1], the system named is TcSKR2. Nature of the test: Receptor activation bioassay, CRE-luciferase reporter in Sf9-TcSKR2 cells. Type of test: cell-based, Tribolium castaneum. The note with it: for peptide marked active on TcSKR2: 10 μM, one-way ANOVA with Dunnett's posttest vs nsSK and medium control; for activity on TcSKR2 in words: compared to parental peptide nsSK, Sf9 cell-based reporter; for relative activity (% nsSK) TcSKR2: peptide 10 μM, Sf9-TcSKR2 cells transiently transfected with pGL4.29[luc2P/CRE/Hygro], 5 h at 27 °C, Bright-Glo luminescence, activity related to nsSK, mean ± SEM, at least two biological replicates, SEM. More on the design: key to peptide marked active on TcSKR2: *: A peptide is active on the sulfakinin receptor (SKR). The protocol:
(§1) Sf9 cells (Spodoptera frugiperda) and Sf9-TcSKR1 and Sf9-TcSKR2 cells generated previously[21] were routinely cultured in SF-900™ II SFM medium (Life Technologies, Merelbeke, Belgium) at 27 °C in darkness. The medium for Sf9-TcSKR1 and Sf9-TcSKR2 was supplemented with 20 μg/ml of puromycin (Life Technologies, Merelbeke, Belgium) to maintain the stable expression of TcSKRs.
(§2) The reporter vector pGL4.29[luc2P/CRE/Hygro] (CRE; Promega, Leiden, the Netherlands) was applied here and it has a cAMP (cyclic adenosine 3′, 5′-cyclic monophosphate) response element upstream the reporter gene luciferase, through which the cAMP signaling regulates the transcription of luciferase proportionally. Thus, the readout of the luminescence corresponds to the extent to which the expressed TcSKR is activated in Sf9 cells. The SK-related peptides (Table 1) were tested at concentrations of 0.1, 1 and 10 μM.
(§3) Sf9, Sf9-TcSKR1 and Sf9-TcSKR2 cells were all transiently transfected with pGL4.29[luc2P/CRE/Hygro] using ESCORT™ IV transfection reagent (Sigma-Aldrich, Bornem, Belgium) following the manufacturer’s instruction. Medium was supplemented with 200 μg/ml hygromycin (Life Technologies, Merelbeke, Belgium) 24 h post-transfection. The transient cells (Sf9-CRE, Sf9-TcSKR1-CRE, Sf9-TcSKR2-CRE) were seeded at 20,000 cells per well in white 96-well plates (Greiner Bio-One, Frickenhausen, Germany). After 12 h, cells had attached to the well bottom and the medium was replaced by fresh medium containing peptide of designated concentrations. Each concentration was tested in three replicates and the entire assay was repeated at least twice. Two kinds of negative control were included. […] Second, Sf9-CRE cells were used as a negative control to eliminate the potential internal factors that were activated by peptide samples. Cells were incubated with a peptide for 5 h at 27 °C and then Bright-Glo™ luciferase assay (Promega, Leiden, the Netherlands) was carried out according to the manufacturer’s instruction. Light emission, resulting from the luciferase activity was measured for 10 seconds per well using an Infinite® 200 PRO microplate reader (Tecan, Mechelen, Belgium).
(§4) In the receptor activation bioassay, the activity of a peptide on TcSKR was represented by the increased luminescence units, calculated with the following formula: activitypeptide = (luminescencepeptide – luminescencemedium)/luminescencemedium × 100. The activity of SK-related peptide was compared to that of nsSK and medium control by one-way analysis of variance with the Dunnett’s posttest in GraphPad Prism version 5.00 (GraphPad Software, La Jolla, CA). The activity of a SK-related peptide was also related to the activity of nsSK as a percentage value, calculated with the formula: relative activity of peptide (% nsSK) = activitypeptide/activitynsSK × 100.

The next test has as its system TcSKR1. The experiment in a line: Receptor activation bioassay, CRE-luciferase reporter in Sf9-TcSKR1 cells. Details: key to peptide marked active on TcSKR1: *: A peptide is active on the sulfakinin receptor (SKR). It counts as cell-based, Tribolium castaneum. The settings on record: for peptide marked active on TcSKR1: 10 μM, one-way ANOVA with Dunnett's posttest vs nsSK and medium control; for activity on TcSKR1 in words: compared to parental peptide nsSK, Sf9 cell-based reporter; for relative activity (% nsSK) TcSKR1: peptide 10 μM, Sf9-TcSKR1 cells transiently transfected with pGL4.29[luc2P/CRE/Hygro], 5 h at 27 °C, Bright-Glo luminescence, activity related to nsSK, mean ± SEM, at least two biological replicates, SEM. The protocol:
as §1, §2, §3, §4

Test [2] has as its system TcSKR2. The settings on record: previous experiments; cited from earlier work. The text has this:
As a satiety factor, insect SK signaling provides insights into the development of new pest control strategies. […] This lead to a hypothesis that sSK and nsSK interact with the two TcSKRs differently. Therefore, understanding the interaction of ligand and receptor will promote the ...

As to “DDY(SO3H)GHMRF-NH2 [Peptide 1658, sulfated SK-related peptide DDY(SO3H)GHMRF-NH2]”, in the test with TcSKR2 [1], the “peptide marked active on TcSKR2” value is on record as “*”, the “activity on TcSKR2 in words” value is “much more active than nsSK; also recorded: retention of activity” and the “relative activity (% nsSK) TcSKR2” value is 516.8 ± 50.6 % nsSK. Besides, in the test on TcSKR1, the “peptide marked active on TcSKR1” value is given as “*”, the “activity on TcSKR1 in words” value is “retention of activity” and the “relative activity (% nsSK) TcSKR1” value was determined as 64.8 ± 8.4 % nsSK.
For the substance “DDYGHMRF-NH2 [Peptide 2009, truncated nsSK, DDYGHMRF-NH2]”, the “relative activity (% nsSK) TcSKR2” value in the test with TcSKR2 [1] was 1.2 ± 13.7 % nsSK. Moreover, the “relative activity (% nsSK) TcSKR1” value with TcSKR1 is recorded as 7.8 ± 11.8 % nsSK.
Taken in the same sequence, the figures for “DYGHMRF-NH2 [Peptide 2010, truncated nsSK, DYGHMRF-NH2]” were 8.6 ± 9.1 % nsSK and 28.1 ± 15.6 % nsSK.
On to “EADY(SO3H)GHNleRF-NH2 [Peptide 1591-1, sulfated SK-related peptide EADY(SO3H)GHNleRF-NH2]”, for which, in the test on TcSKR2 [1], the “peptide marked active on TcSKR2” value was “*”, the “activity on TcSKR2 in words” value was “much more active than nsSK; also recorded: retention of activity” and the “relative activity (% nsSK) TcSKR2” value came out at 113.7 ± 60.5 % nsSK. In addition, in the test with TcSKR1, the “peptide marked active on TcSKR1” value is recorded as “*”, the “activity on TcSKR1 in words” value is “retention of activity” and the “relative activity (% nsSK) TcSKR1” value was 82.6 ± 2.0 % nsSK.
On to “FDDAGHMRF-NH2 [Peptide 2008, alanine-substituted nsSK, …-NH2]”, for which, in the test with TcSKR2 [1], the “activity on TcSKR2 in words” value is “inactive” and the “relative activity (% nsSK) TcSKR2” value came out at 21.5 ± 10.7 % nsSK. Further, in the test with TcSKR1, the “activity on TcSKR1 in words” value is “inactive” and the “relative activity (% nsSK) TcSKR1” value worked out at 5.3 ± 1.5 % nsSK.
“FDDY(SO3H)GHMRF-NH2 [sSK, sulfated sulfakinin peptide FDDY(SO3H)GHMRF-NH2]”: the “potency of sSK relative to nsSK to activate TcSKR2” value in the test on TcSKR2 [2] was 1,000–10,000 times.
As to “FDDYAHMRF-NH2 [Peptide 2007, alanine-substituted nsSK, …-NH2]”, the “relative activity (% nsSK) TcSKR2” value in the test on TcSKR2 [1] is 8.5 ± 5.3 % nsSK. For the same substance, in the test on TcSKR1, the “activity on TcSKR1 in words” value is given as “kept the activity on TcSKR1 to some extent” and the “relative activity (% nsSK) TcSKR1” value was determined as 55.0 ± 7.1 % nsSK.
“FDDYGAMRF-NH2 [Peptide 2006, alanine-substituted nsSK, …-NH2]”: in the test with TcSKR2 [1], the “activity on TcSKR2 in words” value is “inactive” and the “relative activity (% nsSK) TcSKR2” value turned out to be 4.0 ± 9.9 % nsSK. For the same substance, in the test with TcSKR1, the “activity on TcSKR1 in words” value is “inactive” and the “relative activity (% nsSK) TcSKR1” value was 0.5 ± 0.7 % nsSK.
Take “FDDYGHARF-NH2 [Peptide 2005, alanine-substituted nsSK, …-NH2]”: in the test on TcSKR2 [1], the “activity on TcSKR2 in words” value is “inactive” and the “relative activity (% nsSK) TcSKR2” value was 11.9 ± 2.7 % nsSK. Moreover, in the test with TcSKR1, the “activity on TcSKR1 in words” value was “inactive” and the “relative activity (% nsSK) TcSKR1” value was −0.8 ± 4.4 % nsSK.
In the case of “FDDYGHMAF-NH2 [Peptide 2004, alanine-substituted nsSK, …-NH2]”, in the test with TcSKR2 [1], the “activity on TcSKR2 in words” value was “inactive” and the “relative activity (% nsSK) TcSKR2” value is reported as 18.7 ± 10.2 % nsSK. In the test on TcSKR1, the “activity on TcSKR1 in words” value was “inactive” and the “relative activity (% nsSK) TcSKR1” value was 58.0 ± 22.0 % nsSK.
As for “FDDYGHMRA-NH2 [Peptide 2003, alanine-substituted nsSK, …-NH2]”, in the test with TcSKR2 [1], the “activity on TcSKR2 in words” value is “inactive” and the “relative activity (% nsSK) TcSKR2” value is −3.5 ± 5.9 % nsSK. Besides, in the test with TcSKR1, the “activity on TcSKR1 in words” value was “inactive” and the “relative activity (% nsSK) TcSKR1” value is on record as −2.0 ± 3.4 % nsSK.
Turning to “FDDYGHMRF-NH2 [nsSK, nonsulfated sulfakinin peptide …-NH2, parental peptide of the series, reference compound]”, in the test with TcSKR2 [1], the “peptide marked active on TcSKR2” value is “*” and the “relative activity (% nsSK) TcSKR2” value worked out at 100.0 ± 0.0 % nsSK. In the test on TcSKR1, the “peptide marked active on TcSKR1” value is “*” and the “relative activity (% nsSK) TcSKR1” value stood at 100.0 ± 0.0 % nsSK.
In the case of “GHMRF-NH2 [Peptide 2053, truncated nsSK, GHMRF-NH2]”, the “relative activity (% nsSK) TcSKR2” value with TcSKR2 [1] is −4.8 ± 0.1 % nsSK. Besides, in the test with TcSKR1, the “relative activity (% nsSK) TcSKR1” value was found to be 0.6 ± 0.1 % nsSK.
On the same counts, the results for “HMRF-NH2 [Peptide 2052, truncated nsSK, HMRF-NH2]” are 1.8 ± 0.1 % nsSK and 6.8 ± 0.2 % nsSK.
Consider “SDDY(SO3H)GHMRF-NH2 [Peptide 1835, sulfated SK-related peptide SDDY(SO3H)GHMRF-NH2]”, for which, in the test with TcSKR2 [1], the “peptide marked active on TcSKR2” value is reported as “*”, the “activity on TcSKR2 in words” value was “much more active than nsSK; also recorded: retention of activity” and the “relative activity (% nsSK) TcSKR2” value was 645.7 ± 126.6 % nsSK. Moreover, in the test with TcSKR1, the “peptide marked active on TcSKR1” value is given as “*”, the “activity on TcSKR1 in words” value is reported as “retention of activity” and the “relative activity (% nsSK) TcSKR1” value amounted to 76.5 ± 7.6 % nsSK.
For “YGHMRF-NH2 [Peptide 2011, truncated nsSK, YGHMRF-NH2]”, the “relative activity (% nsSK) TcSKR2” value in the test on TcSKR2 [1] is reported as 11.7 ± 13.5 % nsSK. The “relative activity (% nsSK) TcSKR1” value in the test on TcSKR1 is reported as 2.8 ± 2.5 % nsSK.

Values taken from article PMC4542541, “Flexibility and extracellular opening determine the interaction between ligands and insect sulfakinin receptors” (Scientific Reports, 2015).
